Experiments:
Settings in all cases: 48 h
P12-Ichikawa [1] = assay: cell viability relative to DMSO control; higher = less cytotoxic
Method in brief: (§1)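 NOMO1, SEM and P12-Ichikawa leukemia cells spent at least four passages adapting to each medium before use. They were seeded at 500 cells/well (NOMO1, SEM) or 1000 cells/well (P12-Ichikawa) in 5 μl in 1536-well plates and pin-dosed with library compounds in DMSO at 11 threefold steps from 47 μM down to 0.79 nM. After 48 h at 37°C, CellTiter-Glo One luminescence was read. Viability is reported as a percentage of the DMSO wells on each plate, with cell-free wells as background.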

NOMO1 [2] = assay: as above
Method in brief: as §1

SEM cells [3] = assay: as above
Method in brief: as §1

P12-Ichikawa [4] = assay: AUC of viability dose-response curve (% viability x log10 dose units); higher = less sensitive
Method in brief: (§2)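 Viability of medium-adapted leukemia cells was measured by CellTiter-Glo One luminescence after 48 h at 37°C with library compounds in DMSO. Doses were 11 threefold steps from 47 μM to 0.79 nM, in 1536-well plates at 500 or 1000 cells/well. Signals were normalised per plate to DMSO and cell-free wells and fitted with a four-parameter log-logistic model on log10 dose. Area under the curve was integrated by trapezoidal rule, with curves exceeding full viability scaled and failed quality-control curves removed.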

SEM cells [5] = assay: as above
Method in brief: as §2

NOMO1 [6] = assay: as above
Method in brief: as §2

O=C(CCc1ccc(O)cc1)c1c(O)cc(O)cc1O[C@@H]1O[C@H](CO)[C@@H](O)[C@H](O)[C@H]1O
cell viability [%]
Settings	NOMO1 [2]	P12-Ichikawa [1]	SEM cells [3]
HPLM + 10% dialyzed FBS, 0.000781 µM	–	96.3	78.3
HPLM + 10% dialyzed FBS, 0.00234 µM	–	96.6	99.9
HPLM + 10% dialyzed FBS, 0.00702 µM	–	94.1	107
HPLM + 10% dialyzed FBS, 0.0211 µM	–	92.8	107
HPLM + 10% dialyzed FBS, 0.0632 µM	–	88	100
HPLM + 10% dialyzed FBS, 0.19 µM	–	96.3	85.8
HPLM + 10% dialyzed FBS, 0.569 µM	–	86.2	88.2
HPLM + 10% dialyzed FBS, 1.71 µM	–	84	102
HPLM + 10% dialyzed FBS, 5.12 µM	–	85.1	104
HPLM + 10% dialyzed FBS, 15.4 µM	–	81.9	93.1
HPLM + 10% dialyzed FBS, 46.1 µM	–	85.5	81.9
RPMI 5 mM glucose + 10% FBS, 0.000781 µM	82.5	90.2	80.9
RPMI 5 mM glucose + 10% FBS, 0.00234 µM	80.8	85.4	93.9
RPMI 5 mM glucose + 10% FBS, 0.00702 µM	81.7	86.5	98.4
RPMI 5 mM glucose + 10% FBS, 0.0211 µM	77	86.5	97.6
RPMI 5 mM glucose + 10% FBS, 0.0632 µM	92.1	82.4	79.6
RPMI 5 mM glucose + 10% FBS, 0.19 µM	86.1	83.6	94.6
RPMI 5 mM glucose + 10% FBS, 0.569 µM	82.4	88.1	89.4
RPMI 5 mM glucose + 10% FBS, 1.71 µM	78.1	82.6	78.6
RPMI 5 mM glucose + 10% FBS, 5.12 µM	85.4	82.5	93.7
RPMI 5 mM glucose + 10% FBS, 15.4 µM	75.1	81.6	92.2
RPMI 5 mM glucose + 10% FBS, 46.1 µM	84.8	86.1	83.4
RPMI 5 mM glucose + 10% dialyzed FBS, 0.000781 µM	104	84.1	61.4
RPMI 5 mM glucose + 10% dialyzed FBS, 0.00234 µM	96	84.3	102
RPMI 5 mM glucose + 10% dialyzed FBS, 0.00702 µM	115	95	89.6
RPMI 5 mM glucose + 10% dialyzed FBS, 0.0211 µM	105	93.9	104
RPMI 5 mM glucose + 10% dialyzed FBS, 0.0632 µM	115	82.8	86.9
RPMI 5 mM glucose + 10% dialyzed FBS, 0.19 µM	106	85.1	89.1
RPMI 5 mM glucose + 10% dialyzed FBS, 0.569 µM	50.2	81.8	90.5
RPMI 5 mM glucose + 10% dialyzed FBS, 1.71 µM	73.1	89.3	86.7
RPMI 5 mM glucose + 10% dialyzed FBS, 5.12 µM	85.1	83.2	89.5
RPMI 5 mM glucose + 10% dialyzed FBS, 15.4 µM	53.1	80.2	77.4
RPMI 5 mM glucose + 10% dialyzed FBS, 46.1 µM	81.2	82.8	73.1

AUC of viability dose-response curve
Settings	HPLM + 10% dialyzed FBS	RPMI 5 mM glucose + 10% FBS	RPMI 5 mM glucose + 10% dialyzed FBS
P12-Ichikawa [4]	428	405	408
SEM cells [5]	454	426	412

COC1(C[S+]([O-])c2ccccc2)CCN(CCc2c[nH]c3ccc(F)cc23)CC1 (stereo not drawn)
cell viability [%]
Settings	NOMO1 [2]	P12-Ichikawa [1]	SEM cells [3]
HPLM + 10% dialyzed FBS, 0.000781 µM	–	112	119
HPLM + 10% dialyzed FBS, 0.00234 µM	–	105	119
HPLM + 10% dialyzed FBS, 0.00702 µM	–	112	122
HPLM + 10% dialyzed FBS, 0.0211 µM	–	114	104
HPLM + 10% dialyzed FBS, 0.0632 µM	–	113	123
HPLM + 10% dialyzed FBS, 0.19 µM	–	115	111
HPLM + 10% dialyzed FBS, 0.569 µM	–	109	109
HPLM + 10% dialyzed FBS, 1.71 µM	–	96.6	100
HPLM + 10% dialyzed FBS, 5.12 µM	–	102	122
HPLM + 10% dialyzed FBS, 15.4 µM	–	99.6	110
HPLM + 10% dialyzed FBS, 46.1 µM	–	93.2	93.5
RPMI 5 mM glucose + 10% FBS, 0.000781 µM	107	117	120
RPMI 5 mM glucose + 10% FBS, 0.00234 µM	113	116	109
RPMI 5 mM glucose + 10% FBS, 0.00702 µM	106	133	117
RPMI 5 mM glucose + 10% FBS, 0.0211 µM	106	148	106
RPMI 5 mM glucose + 10% FBS, 0.0632 µM	117	140	119
RPMI 5 mM glucose + 10% FBS, 0.19 µM	117	99.9	113
RPMI 5 mM glucose + 10% FBS, 0.569 µM	116	78.9	116
RPMI 5 mM glucose + 10% FBS, 1.71 µM	112	78.7	111
RPMI 5 mM glucose + 10% FBS, 5.12 µM	113	115	117
RPMI 5 mM glucose + 10% FBS, 15.4 µM	103	106	110
RPMI 5 mM glucose + 10% FBS, 46.1 µM	96.2	97.6	95.6
RPMI 5 mM glucose + 10% dialyzed FBS, 0.000781 µM	111	104	–
RPMI 5 mM glucose + 10% dialyzed FBS, 0.00234 µM	99.8	111	–
RPMI 5 mM glucose + 10% dialyzed FBS, 0.00702 µM	115	114	–
RPMI 5 mM glucose + 10% dialyzed FBS, 0.0211 µM	102	116	–
RPMI 5 mM glucose + 10% dialyzed FBS, 0.0632 µM	112	109	–
RPMI 5 mM glucose + 10% dialyzed FBS, 0.19 µM	111	105	–
RPMI 5 mM glucose + 10% dialyzed FBS, 0.569 µM	110	103	–
RPMI 5 mM glucose + 10% dialyzed FBS, 1.71 µM	99.8	98.4	–
RPMI 5 mM glucose + 10% dialyzed FBS, 5.12 µM	98.3	105	–
RPMI 5 mM glucose + 10% dialyzed FBS, 15.4 µM	103	99.9	–
RPMI 5 mM glucose + 10% dialyzed FBS, 46.1 µM	90.3	85.4	–

AUC of viability dose-response curve
Settings	NOMO1 [6]	P12-Ichikawa [4]	SEM cells [5]
HPLM + 10% dialyzed FBS	418	455	445
RPMI 5 mM glucose + 10% FBS	469	408	471
RPMI 5 mM glucose + 10% dialyzed FBS	460	451	456

Oc1cc(O)cc(/C=C/c2ccc(O)c(O)c2)c1
cell viability [%]
Settings	NOMO1 [2]	P12-Ichikawa [1]	SEM cells [3]
HPLM + 10% dialyzed FBS, 0.000781 µM	97.9	103	86.5
HPLM + 10% dialyzed FBS, 0.00234 µM	101	103	85.8
HPLM + 10% dialyzed FBS, 0.00702 µM	99.3	100	89.6
HPLM + 10% dialyzed FBS, 0.0211 µM	99.4	106	80.1
HPLM + 10% dialyzed FBS, 0.0632 µM	110	103	99.9
HPLM + 10% dialyzed FBS, 0.19 µM	104	109	92.7
HPLM + 10% dialyzed FBS, 0.569 µM	97.4	106	93.3
HPLM + 10% dialyzed FBS, 1.71 µM	101	111	106
HPLM + 10% dialyzed FBS, 5.12 µM	100	98	78.1
HPLM + 10% dialyzed FBS, 15.4 µM	56	85.2	77.9
HPLM + 10% dialyzed FBS, 46.1 µM	45.4	28.3	44.6
RPMI 5 mM glucose + 10% FBS, 0.000781 µM	89.7	97.5	101
RPMI 5 mM glucose + 10% FBS, 0.00234 µM	90.5	92.7	102
RPMI 5 mM glucose + 10% FBS, 0.00702 µM	94	101	95
RPMI 5 mM glucose + 10% FBS, 0.0211 µM	85.6	104	107
RPMI 5 mM glucose + 10% FBS, 0.0632 µM	91.9	102	101
RPMI 5 mM glucose + 10% FBS, 0.19 µM	85.7	97.8	101
RPMI 5 mM glucose + 10% FBS, 0.569 µM	97.1	105	115
RPMI 5 mM glucose + 10% FBS, 1.71 µM	88.4	97	92.7
RPMI 5 mM glucose + 10% FBS, 5.12 µM	86.9	85	85.3
RPMI 5 mM glucose + 10% FBS, 15.4 µM	72.3	91.1	67.5
RPMI 5 mM glucose + 10% FBS, 46.1 µM	70.8	45.6	14.2
RPMI 5 mM glucose + 10% dialyzed FBS, 0.000781 µM	81.6	87.6	87.9
RPMI 5 mM glucose + 10% dialyzed FBS, 0.00234 µM	99.6	88.3	92.7
RPMI 5 mM glucose + 10% dialyzed FBS, 0.00702 µM	92.3	101	78.6
RPMI 5 mM glucose + 10% dialyzed FBS, 0.0211 µM	88.8	104	82.6
RPMI 5 mM glucose + 10% dialyzed FBS, 0.0632 µM	103	102	87.5
RPMI 5 mM glucose + 10% dialyzed FBS, 0.19 µM	98.4	104	89.8
RPMI 5 mM glucose + 10% dialyzed FBS, 0.569 µM	94.9	93	97.6
RPMI 5 mM glucose + 10% dialyzed FBS, 1.71 µM	93.5	101	84.2
RPMI 5 mM glucose + 10% dialyzed FBS, 5.12 µM	79.3	93.6	82.4
RPMI 5 mM glucose + 10% dialyzed FBS, 15.4 µM	84.8	84.4	63.4
RPMI 5 mM glucose + 10% dialyzed FBS, 46.1 µM	72.8	40.7	27.3

AUC of viability dose-response curve
Settings	NOMO1 [6]	P12-Ichikawa [4]	SEM cells [5]
HPLM + 10% dialyzed FBS	442	449	413
RPMI 5 mM glucose + 10% FBS	416	452	430
RPMI 5 mM glucose + 10% dialyzed FBS	431	444	390
